Measurements reported in patent US20240300886A1, “ARYLCYCLOHEXYLAMINE DERIVATIVES AND THEIR USE IN THE TREATMENT OF PSYCHIATRIC DISORDERS” (GILGAMESH PHARMACEUTICALS, INC., priority 2021, published 2024).
Where two headings read alike, the source gives them in different places.

Assays:
[1] = Oral bioavailability in mice, Method B (plasma and brain PK); type: in vivo, C57BL/6 mice; conditions: for half-life / Cmax / AUC(0-inf): male, C57BL/6; for half-life / Cmax / AUC(0-inf) / AUC0-inf (iv) / AUC0-inf (po) / F: Method B; for AUC(0-inf) / AUC0-inf (iv) / AUC0-inf (po): values represent AUC0-last; for F: 1 mg/kg
Description: Animals. Male C57BL/6 mice were used in these studies. Animals were randomly assigned to treatment groups and were fasted for 4 h before dosing.
Drugs. Test compounds were dissolved in a vehicle consisting of normal saline (for compounds used as the HCl salt) or normal saline slightly acidified with aq. HCl (for freebase compounds). They were then administered intravenously (iv) or orally (po) at a dose of 1 or 10 mg/kg (calculated based on freebase), as indicated, and at a volume of 5 mL/kg body weight. Compounds were tested as the racemates or pure enantiomers, as indicated.
(§1) Sample Collection and Bioanalysis. Blood samples (approximately 60 μL) were collected under light isoflurane anesthesia (Surgivet®) from the retro orbital plexus at 0.08, 0.25, 0.5, 1, 2, 4, 8, and 24 h (4 animals per time point). Immediately after blood collection, plasma was harvested by centrifugation at 4,000 rpm for 10 min at 4° C. and samples were stored at −70±10° C. until bioanalysis. Following blood collection, animals were immediately sacrificed, the abdominal vena-cava was cut open, and the whole body was perfused from the heart using 10 mL of normal saline, and brain samples were collected from all animals. After isolation, brain samples were rinsed three times in ice-cold normal saline (for 5-10 seconds/rinse using ˜5-10 mL, normal saline in disposable petri dish for each rinse) and dried on blotting paper. Brain samples were homogenized using ice-cold phosphate-buffered saline (pH 7.4). Total homogenate volume was three times the tissue weight. All homogenates were stored at −70±10° C. until bioanalysis. For bioanalysis, 25 μL aliquots of plasma/brain study samples or spiked plasma/brain calibration standards were added to individual pre-labeled micro-centrifuge tubes followed by 100 μL of an internal standard solution (glipizide, 500 ng/mL in acetonitrile) except for blanks, where 100 μL of acetonitrile was added. Samples were vortexed for 5 minutes and then centrifuged for 10 minutes at 4,000 rpm at 4° C. Following centrifugation, 100 μL of each clear supernatant was transferred to a 96 well plate and analyzed with a fit-for-purpose LC-MS/MS method, with authentic samples of each analyte used for calibration and identification.
(§2) Data Analysis. Pharmacokinetic parameters were estimated using the non-compartmental analysis tool of Phoenix® WinNonlin software (Ver 8.0).

[2] = test system: MK-801 binding site of the N-methyl-D-aspartate receptor (NMDAR); experiment: NMDA receptor radioligand binding with [3H]MK-801; design: species or system Wistar rat; conditions: for Ki: [3H]MK-801 displacement, Wistar rat brain (minus cerebellum), read-out: NMDAR Ki (95% CI)
Description: The binding affinities of disclosed compounds at the MK-801 binding site of the N-methyl-D-aspartate receptor (NMDAR) were determined in radioligand binding experiments (Table 13).
Radioligand Binding. Affinity of the test compounds for NMDAR was determined in radioligand binding experiments with [^3H]MK-801 by Eurofins Panlabs, Inc., using methods adapted from the literature (Javitt el al. 1987; Reynolds et al. 1989) and under the conditions described in Table 14.

[3] = Comparative metabolism/PK of 2R and deuterated 7R in rats after oral administration; type: in vivo, Sprague Dawley rats; conditions: for concentration at 0.083 h / concentration at 0.25 h / concentration at 0.5 h / concentration at 1 h / concentration at 2 h / concentration at 4 h: oral; for concentration at 0.083 h: 0.083 h after 10 mg/kg po of 2R or 7R; for concentration at 0.25 h: 0.25 h after 10 mg/kg po of 2R or 7R; for concentration at 0.5 h: 0.5 h after 10 mg/kg po of 2R or 7R; for concentration at 1 h: 1 h after 10 mg/kg po of 2R or 7R; for concentration at 2 h: 2 h after 10 mg/kg po of 2R or 7R; for concentration at 4 h: 4 h after 10 mg/kg po of 2R or 7R
Description: Animals. Male Sprague Dawley rats were used in these studies. Animals were randomly assigned to treatment groups and were fasted for 4 h before dosing.
Drugs. Test compounds 2R and 7R were dissolved in a vehicle consisting of normal saline. They were then administered orally (po) at a dose of 10 mg/kg (calculated based on freebase), and at a volume of 5 mL/kg body weight.
as §1, with “mL” for “mL,”, “7.4)” for “7.4).”, “identification. Concentrations of parent compound (2R or 7R) and metabolite 1R were determined in all samples.” for “identification.”
as §2

[4] = Stability in liver microsomes (Example 21), cynomolgus monkey; type: in vitro ADME; conditions: male, pH 7.4, 0.5 mg/mL protein
Description: General Procedure. Briefly, test compounds (final concentration 1 μM) were incubated in duplicate with liver microsomes from male animals of the indicated species (final protein concentration 0.5 mg/mL) in 50 mM sodium phosphate buffer (pH 7.4) with or without NADPH (1 mM). Total incubation volume was 500 μL. At 0, 5, 15, 30, and 60 min, aliquots of 50 μL were withdrawn, quenched with acetonitrile (150 μL), and analyzed for parent compound remaining using a fit-for-purpose LC-MS/MS method. Intrinsic clearance and half-life were calculated. Clearance values below zero were rounded to zero.

[5] = mouse brain, 1 mg/kg iv, read-out: t1/2 (iv)
[6] = mouse brain, 1 mg/kg po, read-out: t1/2 (po)
[7] = mouse plasma, 1 mg/kg iv, read-out: t1/2 (iv)
[8] = mouse plasma, 1 mg/kg iv, read-out: AUC0-inf (iv) (converted)
[9] = mouse plasma, 1 mg/kg po, read-out: t1/2 (po)
[10] = mouse plasma, 1 mg/kg po, read-out: AUC0-inf (po) (converted)
[11] = mouse brain, calculated based on brain exposure (AUC0-last)
[12] = mouse plasma, based on AUC0-last
[13] = male, Sprague Dawley, rat, plasma, 10 mg/kg, rat plasma, read-out: Mean plasma concentration
[14] = rat brain after 10 mg/kg po of 2R or 7R, parent or metabolite 1R as labelled
[15] = male, Sprague Dawley, rat, brain, 10 mg/kg, rat brain, read-out: Mean brain concentration

Structure (SMILES)	half-life [1, 5] [min]	Cmax ([1]; mouse brain, 1 mg/kg po) [ng/g]	half-life [1, 6] [min]	half-life [1, 7] [min]	AUC(0-inf) [1, 8] [ng·h/mL]	Cmax ([1]; mouse plasma, 1 mg/kg po) [ng/mL]	half-life [1, 9] [min]	AUC(0-inf) [1, 10] [ng·h/mL]	AUC0-inf (iv) ([1]; mouse brain, 1 mg/kg iv)	AUC0-inf (po) ([1]; mouse brain, 1 mg/kg po)	F [1, 11] [%]	F [1, 12] [%]	Ki [2] [nM]	microsomal CLint at 1 μM [4] [µL/min/mg]	other results
CN[C@@]1(c2ccc(F)cc2)CCCCC1=O [Compound 2R, (R)-2-(4-fluorophenyl)-2(methylamino)cyclohexan-1-one]	23.4	177	36	45	96.3	53.6	29.4	38.8	17,791 ng*min/g	5,890 ng*min/g	33	40	3300	9.5	brain exposure after oral administration compared to enantiomer 2S ([1]; mice): substantially higher brain exposure; NMDAR binding potency relative to enantiomer 2S (less potent) ([2]; MK-801 site of NMDAR): ~3 fold; half-life ([3]; male, Sprague Dawley, rat, brain, po, 10 mg/kg, rat brain after 10 mg/kg po of 2R or 7R, parent or metabolite 1R as labelled, read-out: t1/2 (brain)): 71 min; concentration at 0.083 h [3, 13]: 37 ng/mL; concentration at 0.25 h [3, 13]: 760 ng/mL; concentration at 0.5 h [3, 13]: 850 ng/mL; concentration at 1 h [3, 13]: 497 ng/mL; concentration at 2 h [3, 13]: 142 ng/mL; concentration at 4 h [3, 13]: 42 ng/mL; Cmax ([3]; male, Sprague Dawley, rat, plasma, po, 10 mg/kg, rat plasma after 10 mg/kg po of 2R or 7R, parent or metabolite 1R as labelled): 850 ng/mL; AUC(0-t) ([3]; male, Sprague Dawley, rat, plasma, po, 10 mg/kg, rat plasma after 10 mg/kg po of 2R or 7R, parent or metabolite 1R as labelled, read-out: AUC0-last (plasma) (converted)): 1200 ng·h/mL; half-life ([3]; male, Sprague Dawley, rat, plasma, po, 10 mg/kg, rat plasma after 10 mg/kg po of 2R or 7R, parent or metabolite 1R as labelled, read-out: t1/2 (plasma)): 70 min; AUC0-last (brain) [3, 14]: 227268 ng·min/g; Cmax (brain) [3, 14]: 2599 ng/g
CN[C@]1(c2ccc(F)cc2)CCCCC1=O [Compound 2S, (S)-2-(4-fluorophenyl)-2-(methylamino)cyclohexan-1-one]	21.6	80.4	42	54.6	119	51.7	50.4	46.6	21,532 ng*min/g	4,264 ng*min/g	20	39	1200	15.3	concentration at 0.083 h [3, 15]: 43 ng/g; concentration at 0.25 h [3, 15]: 1900 ng/g; concentration at 0.5 h [3, 15]: 2600 ng/g; concentration at 1 h [3, 15]: 1510 ng/g; concentration at 2 h [3, 15]: 521 ng/g; concentration at 4 h [3, 15]: 155 ng/g
